Key:
PAD4 [1] = biological target: T1, PAD4 (Homo sapiens (Human), UniProt Q9UM07); experiment: Ammonia release biochemical assay (citrullination)
Protocol: Ammonia Release Biochemical Assay
Citrullination assay was detected via ammonia release. […] The reaction was stopped after 60 min by addition of stop/detection buffer containing 50 mM EDTA, 2.6 mM of o-phthaladehyde and 2.6 mM DTT.

PAD4 [2] = biological target: T1, PAD4; experiment: FP binding assay; conditions: for actively inhibiting PAD4 enzyme activity, FP Binding assay: summary of Table 1
Protocol: Binding of compounds with PAD4 was detected by FP assay. PAD4 was diluted to 1 uM in assay buffer (100 mM HEPES, 50 mM NaCl, 1 mM DTT, 5% Glycerol and 1 mM CHAPS) and added to wells containing various concentration of compounds or DMSO vehicle (1%) in a 384 well black plate. 10 nM of fluorescein labelled probe (JPAD-00085) was added to the plate.

[3] = Table 1, class A, read-out: IC50 value, ammonia release biochemical assay
[4] = read-out: NH3 release biochemical assay PAD4 IC50

T1 sequence (Q9UM07 whole entry): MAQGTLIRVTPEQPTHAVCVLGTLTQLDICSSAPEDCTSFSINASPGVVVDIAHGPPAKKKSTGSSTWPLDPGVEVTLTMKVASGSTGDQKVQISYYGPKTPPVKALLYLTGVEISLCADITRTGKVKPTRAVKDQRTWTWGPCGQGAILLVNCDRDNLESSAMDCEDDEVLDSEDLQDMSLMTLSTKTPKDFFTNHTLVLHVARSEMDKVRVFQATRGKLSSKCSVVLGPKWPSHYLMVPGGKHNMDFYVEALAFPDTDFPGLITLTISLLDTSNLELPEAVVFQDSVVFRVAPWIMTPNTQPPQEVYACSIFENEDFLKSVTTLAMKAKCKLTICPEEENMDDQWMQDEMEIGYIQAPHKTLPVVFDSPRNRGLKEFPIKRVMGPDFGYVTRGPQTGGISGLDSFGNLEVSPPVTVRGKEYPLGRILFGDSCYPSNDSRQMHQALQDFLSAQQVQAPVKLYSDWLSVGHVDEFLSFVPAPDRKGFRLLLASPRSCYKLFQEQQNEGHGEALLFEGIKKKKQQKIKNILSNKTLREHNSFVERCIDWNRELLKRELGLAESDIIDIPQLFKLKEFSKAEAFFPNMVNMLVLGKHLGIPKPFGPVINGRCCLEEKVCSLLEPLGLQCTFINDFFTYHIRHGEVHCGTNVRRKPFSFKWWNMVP

Structure (SMILES) | IC50 (PAD4 [1]; [3]) [nM] | IC50 (PAD4 [1]; [4]) [nM] | IC50 (PAD4 [2]) [nM] | actively inhibiting PAD4 enzyme activity, FP Binding assay (PAD4 [2])
Cc1c(-c2cc3ccccc3n2Cc2ccc(F)cc2)nc2cc(C(=O)N3CCC[C@@H](N)C3)ccn12 [Compound 13, (R)-(3-Aminopiperidin-1-yl)(2-(1-(4-fluorobenzyl)-1H-indol-2-yl)-3-methylimidazo[1,2-a]pyridin-7-yl)methanone] | ≤ 1000 | < 1000 | < 1000 | actively inhibiting PAD4 enzyme activity
Cc1c(-c2cc3ccccc3n2Cc2ccccn2)nc2cc(C(=O)N3CCC[C@@H](N)C3)ccn12 [Compound 16, (R)-(3-Aminopiperidin-1-yl)(3-methyl-2-(1-(pyridin-2-ylmethyl)-1H-indol-2-yl)imidazo[1,2-a]pyridin-7-yl)methanone] | – | < 1000 | < 1000 | actively inhibiting PAD4 enzyme activity
COc1ccc2cc(-c3nc4cc(C(=O)N5CCC[C@@H](N)C5)ccn4c3C)n(CC3CC3)c2c1 [Compound 23, (R)-(3-Aminopiperidin-1-yl)(2-(1-(cyclopropylmethyl)-6-methoxy-1H-indol-2-yl)-3-methylimidazo[1,2-a]pyridin-7-yl)methanone] | – | < 1000 | < 1000 | actively inhibiting PAD4 enzyme activity
Cc1c(-c2cc3ccc(F)cc3n2CC2CC2)nc2cc(C(=O)N3CCC[C@@H](N)C3)ccn12 [Compound 28, (R)-(3-Aminopiperidin-1-yl)(2-(1-(cyclopropylmethyl)-6-fluoro-1H-indol-2-yl)-3-methylimidazo[1,2-a]pyridin-7-yl)methanone] | – | < 1000 | < 1000 | –
Cc1c(-c2cc3cc(F)ccc3n2CC2CC2)nc2cc(C(=O)N3CCC[C@@H](N)C3)ccn12 [Compound 29, (R)-(3-Aminopiperidin-1-yl)(2-(1-(cyclopropylmethyl)-5-fluoro-1H-indol-2-yl)-3-methylimidazo[1,2-a]pyridin-7-yl)methanone] | – | < 1000 | < 1000 | –
Cc1cccc2cc(-c3nc4cc(C(=O)N5CCC[C@@H](N)C5)ccn4c3C)n(CC3CC3)c12 [Compound 30, (R)-(3-Aminopiperidin-1-yl)(2-(1-(cyclopropylmethyl)-7-methyl-1H-indol-2-yl)-3-methylimidazo[1,2-a]pyridin-7-yl)methanone] | – | < 1000 | < 1000 | –
N[C@@H]1CCCN(C(=O)c2ccn3c(-c4ccccc4)c(-c4cc5ccccc5n4CC4CC4)nc3c2)C1 [Compound 32, (R)-(3-Aminopiperidin-1-yl)(2-(1-(cyclopropylmethyl)-1H-indol-2-yl)-3-phenylimidazo[1,2-a]pyridin-7-yl)methanone] | – | > 10000 | > 10000 | –
Cc1c(-c2cc3ccccc3n2Cc2ccsc2)nc2cc(C(=O)N3CCC[C@@H](N)C3)ccn12 [Compound 36, (R)-(3-aminopiperidin-1-yl)(3-methyl-2-(1-(thiophen-3-ylmethyl)-1H-indol-2-yl)imidazo[1,2-a]pyridin-7-yl)methanone] | – | < 1000 | < 1000 | actively inhibiting PAD4 enzyme activity
CCn1c(-c2nc3cc(C(=O)N4CCC[C@@H](N)C4)ccn3c2C)cc2cc(F)ccc21 [Compound 39, (R)-(3-aminopiperidin-1-yl)(2-(1-ethyl-5-fluoro-1H-indol-2-yl)-3-methylimidazo[1,2-a]pyridin-7-yl)methanone] | ≤ 1000 | < 1000 | < 1000 | actively inhibiting PAD4 enzyme activity

From patent US11426412B2, “Imidazo-pyridine compounds as PAD inhibitors” (JUBILANT EPIPAD LLC, priority 2017, dated 2022)
